One data set can be described thus: permeability. The data set is classed as in vitro ADME.
The next data set concerns TZMB-sensitive cells. Description: treatment of TZMB-sensitive cells. The data set is classed as cell-based. As to conditions: parent BT474 and NCI-N87.
Data set [1] deals with T47D (HER2-negative breast cancer cell line). As to the kind of experiment: antiproliferative effect, T47D. Format: cell-based. As to conditions: Homo sapiens, 72 hours.
Data set [2] can be described thus: pharmacokinetic profiling. The data set is classed as in vivo.
Another data set concerns JIMT-1 xenograft. As to the kind of experiment: JIMT-1 xenograft, tumor growth. The data set is classed as in vivo, mice. As to conditions: 4 mg/kg, intraperitoneal, eight times at 3-day intervals. The method, then:
(§1) Xenograft mice were generated to evaluate the anticancer effects of the candidate compound. NCI-N87 and JIMT-1 cells (5×10^6 cells), dissolved in 100 μL of 1× phosphate-buffered saline (PBS), were subcutaneously injected into the right flanks of 5-week-old female athymic nude mice (Envigo, USA) or 4-week-old female NOD-SCID mice (Koatech, South Korea). When the tumors reached a volume of 90-100 mm^3, the mice were randomized into designated groups. For the NCI-N87 xenograft, intravenous administration was performed six times at 3-day intervals. For the JIMT-1 xenograft, intraperitoneal administration was performed eight times at 3-day intervals. […] Tumor size changes were monitored until the mean tumor size in the control group reached 2,000-2,500 mm^3. On day 28 for the NCI-N87 xenograft and day 46 for the JIMT-1 xenograft, the mice were sacrificed, and tumors were excised to determine relative tumor sizes. Tumor length (L) and width (W) were measured with calipers, and tumor volume was calculated using the formula: […]

Data set [3] deals with Nluc-ELF3 / Cluc-MED23391-462 (Homo sapiens, UniProt Q9ULK4). As to the kind of experiment: split luciferase biosensor assay. The data set is classed as cell-based. As to conditions: dose-dependent. The method, then: The biosensor used for the assay was prepared using the In-Fusion® HD Cloning Kit with firefly (Photinus pyralis) luciferase. The luciferase enzyme was split into two fragments (Nluc and Cluc). The full-length ELF3 (wild-type) and MED23 mutants were cloned into the […] and KpnI sites, and the NotI and KpnI sites of p3Xflag-myc-CMV26, respectively. The full-length cDNA of human ELF3 (accession number NM_001114309.1) was fused to the N-terminal fragment of split luciferase (Nluc), while the […] of MED23 (accession number NM_001270521.1) was fused to the C-terminal of split luciferase (Cluc).
Sequence of Nluc-ELF3 / Cluc-MED23391-462 (Q9ULK4 391-462): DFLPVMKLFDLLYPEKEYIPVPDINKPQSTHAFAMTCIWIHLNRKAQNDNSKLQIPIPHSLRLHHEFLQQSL
Bioluminescence intensity, complementarily generated by ELF3-MED23 binding, was measured using this method (FIG. 3B).

In the next data set the target is T1, MED23^D400A/H449G (Homo sapiens, UniProt Q9ULK4, D400A/H449G).
T1 construct: FLAG pulldown, LC-MS/MS
T1 sequence (Q9ULK4 whole entry D400A/H449G): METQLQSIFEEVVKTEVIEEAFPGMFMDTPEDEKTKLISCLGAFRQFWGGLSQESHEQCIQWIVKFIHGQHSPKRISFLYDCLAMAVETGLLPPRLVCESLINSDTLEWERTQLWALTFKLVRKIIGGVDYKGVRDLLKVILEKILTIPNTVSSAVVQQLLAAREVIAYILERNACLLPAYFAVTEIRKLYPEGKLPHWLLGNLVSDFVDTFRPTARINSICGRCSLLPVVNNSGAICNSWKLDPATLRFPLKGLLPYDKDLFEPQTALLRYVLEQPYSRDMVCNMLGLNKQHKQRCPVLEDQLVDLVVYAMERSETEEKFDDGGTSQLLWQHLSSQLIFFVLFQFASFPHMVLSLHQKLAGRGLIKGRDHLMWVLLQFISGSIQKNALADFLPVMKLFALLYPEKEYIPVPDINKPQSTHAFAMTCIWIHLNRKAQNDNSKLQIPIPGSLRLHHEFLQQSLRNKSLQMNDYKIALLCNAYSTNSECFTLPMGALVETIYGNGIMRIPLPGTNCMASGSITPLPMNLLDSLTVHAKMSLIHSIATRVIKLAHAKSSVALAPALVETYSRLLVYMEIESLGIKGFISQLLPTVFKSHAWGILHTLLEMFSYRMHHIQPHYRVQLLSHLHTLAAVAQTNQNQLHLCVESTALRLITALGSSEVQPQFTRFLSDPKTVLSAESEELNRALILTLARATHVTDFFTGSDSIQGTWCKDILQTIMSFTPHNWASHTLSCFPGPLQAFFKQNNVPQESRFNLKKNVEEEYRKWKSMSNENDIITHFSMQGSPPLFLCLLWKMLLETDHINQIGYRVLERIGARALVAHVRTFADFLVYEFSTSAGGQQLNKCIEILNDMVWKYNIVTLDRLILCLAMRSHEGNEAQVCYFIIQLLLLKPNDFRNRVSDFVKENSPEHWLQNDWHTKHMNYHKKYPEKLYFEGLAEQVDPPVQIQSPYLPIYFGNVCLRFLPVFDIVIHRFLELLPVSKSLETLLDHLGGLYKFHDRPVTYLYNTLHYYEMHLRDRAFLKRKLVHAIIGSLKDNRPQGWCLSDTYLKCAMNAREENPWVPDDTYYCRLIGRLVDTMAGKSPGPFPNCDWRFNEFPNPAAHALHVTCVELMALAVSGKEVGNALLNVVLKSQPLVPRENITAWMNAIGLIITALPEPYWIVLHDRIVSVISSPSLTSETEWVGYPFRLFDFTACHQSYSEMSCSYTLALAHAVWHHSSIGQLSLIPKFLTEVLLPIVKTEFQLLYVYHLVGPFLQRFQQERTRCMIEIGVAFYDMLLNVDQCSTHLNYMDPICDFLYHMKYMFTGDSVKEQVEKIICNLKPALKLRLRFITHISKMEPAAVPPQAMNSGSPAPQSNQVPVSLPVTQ
As to the kind of experiment: LC-MS/MS protein-small molecule interaction, double mutant. Format: binding. The following applies: FLAG pulldown. The method, then: HEK293 cells were seeded in a […] and incubated until they reached 70-80% confluency. The cells were transfected with p3Xflag-myc-CMV26-MED23^WT and p3Xflag-myc-CMV26-MED23^D400A/H449G plasmids for 24 hours, followed by lysis to obtain protein extracts. To isolate the candidate compound (YK1) bound to MED23, total lysates were incubated with YK1 for 4 hours and subsequently subjected to pulldown using FLAG-agarose beads (Sigma Aldrich, USA). The precipitated beads were washed at least three times to completely remove unbound compounds. To separate the candidate compound from the precipitated MED23, 50 μL of the sample was extracted with 1 mL of acetonitrile and centrifuged at 13,000 rpm at 4 °C for 10 minutes. The supernatant (1,000 μL) from each sample was transferred to a new tube and dried under nitrogen gas at 37 °C. For YK1 analysis, the residue was dissolved in 50 μL of ACN and vortexed for 10 minutes. […] The mixture was then extracted with 450 μL of ACN by ultrasonic treatment and vortex mixing. The candidate compound bound to MED23 was finally analyzed using an Agilent 6460 triple quadrupole mass spectrometer (Agilent Technologies, USA).

The target in a further data set is PI3 Kinase (p110a/p85a) (Homo sapiens, UniProt P42336). Description: kinase profiling, PI3 kinase. The data set is classed as biochemical. As to conditions: read-out: In vitro kinase inhibitory activity (%). The method, then:
(§2) Kinase inhibitory activity of the candidate compound at 10 μM and 25 μM was assessed using Eurofins Kinase Profiling Services. Inhibitory effects on c-RAF, EGFR, ErbB2, ErbB4, and PI3 kinase were analyzed according to the Kinase Profiler Service Assay protocol.

The target of another data set is c-RAF (Homo sapiens, UniProt P04049). As to the kind of experiment: kinase profiling, c-RAF. The data set is classed as biochemical. The following applies: read-out: In vitro kinase inhibitory activity (%). The method, then:
as §2

A further data set deals with HER2. Description: JIMT-1 xenograft, HER2 levels. The data set is classed as in vivo, mice. The following applies: 4 mg/kg. The method, then: as §1
For immunohistochemistry (IHC) analysis, tumors from the xenograft models were prepared as paraffin-embedded sections. […] The control group was counterstained with hematoxylin, and the IHC staining was evaluated under an optical microscope at 200× magnification.

The values that follow come from US20260373119A1, “NOVEL COMPOUND, AND COMPOSITION FOR PREVENTING OR TREATING HER2-POSITIVE CANCER, COMPRISING SAME” (EWHA UNIVERSITY - INDUSTRY COLLABORATION FOUNDATION, priority 2022, published 2026).

Sequence of PI3 Kinase (p110a/p85a) (P42336 whole entry): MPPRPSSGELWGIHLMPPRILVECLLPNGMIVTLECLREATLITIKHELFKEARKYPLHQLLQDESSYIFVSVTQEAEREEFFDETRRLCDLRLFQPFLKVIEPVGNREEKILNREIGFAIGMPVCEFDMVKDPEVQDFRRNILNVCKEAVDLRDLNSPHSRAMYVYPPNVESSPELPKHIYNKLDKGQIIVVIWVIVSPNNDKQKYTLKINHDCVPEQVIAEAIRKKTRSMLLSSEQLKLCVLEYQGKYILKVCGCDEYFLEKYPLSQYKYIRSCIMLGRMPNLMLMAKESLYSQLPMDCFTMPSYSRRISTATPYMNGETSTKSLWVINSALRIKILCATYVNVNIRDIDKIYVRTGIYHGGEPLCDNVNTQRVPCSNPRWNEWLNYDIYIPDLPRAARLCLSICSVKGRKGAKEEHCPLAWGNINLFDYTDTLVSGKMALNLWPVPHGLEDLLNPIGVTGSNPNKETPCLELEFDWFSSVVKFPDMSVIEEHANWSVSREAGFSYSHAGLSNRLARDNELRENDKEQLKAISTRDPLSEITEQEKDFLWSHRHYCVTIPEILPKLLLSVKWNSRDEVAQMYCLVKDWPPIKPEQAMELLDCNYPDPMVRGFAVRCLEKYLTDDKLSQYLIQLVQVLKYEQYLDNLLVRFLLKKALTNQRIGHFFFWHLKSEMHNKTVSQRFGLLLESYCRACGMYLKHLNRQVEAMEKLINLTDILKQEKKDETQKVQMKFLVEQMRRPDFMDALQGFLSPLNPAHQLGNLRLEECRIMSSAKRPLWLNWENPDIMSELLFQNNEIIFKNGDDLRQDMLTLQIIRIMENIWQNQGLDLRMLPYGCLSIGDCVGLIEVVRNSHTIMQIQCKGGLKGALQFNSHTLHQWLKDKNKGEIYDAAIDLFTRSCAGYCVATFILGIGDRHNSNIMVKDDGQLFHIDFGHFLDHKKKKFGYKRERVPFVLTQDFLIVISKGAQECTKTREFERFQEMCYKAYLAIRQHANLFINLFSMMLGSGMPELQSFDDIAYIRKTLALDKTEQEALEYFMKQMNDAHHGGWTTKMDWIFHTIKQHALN
Sequence of PI3 Kinase (p110a/p85a) (P27986 whole entry partner): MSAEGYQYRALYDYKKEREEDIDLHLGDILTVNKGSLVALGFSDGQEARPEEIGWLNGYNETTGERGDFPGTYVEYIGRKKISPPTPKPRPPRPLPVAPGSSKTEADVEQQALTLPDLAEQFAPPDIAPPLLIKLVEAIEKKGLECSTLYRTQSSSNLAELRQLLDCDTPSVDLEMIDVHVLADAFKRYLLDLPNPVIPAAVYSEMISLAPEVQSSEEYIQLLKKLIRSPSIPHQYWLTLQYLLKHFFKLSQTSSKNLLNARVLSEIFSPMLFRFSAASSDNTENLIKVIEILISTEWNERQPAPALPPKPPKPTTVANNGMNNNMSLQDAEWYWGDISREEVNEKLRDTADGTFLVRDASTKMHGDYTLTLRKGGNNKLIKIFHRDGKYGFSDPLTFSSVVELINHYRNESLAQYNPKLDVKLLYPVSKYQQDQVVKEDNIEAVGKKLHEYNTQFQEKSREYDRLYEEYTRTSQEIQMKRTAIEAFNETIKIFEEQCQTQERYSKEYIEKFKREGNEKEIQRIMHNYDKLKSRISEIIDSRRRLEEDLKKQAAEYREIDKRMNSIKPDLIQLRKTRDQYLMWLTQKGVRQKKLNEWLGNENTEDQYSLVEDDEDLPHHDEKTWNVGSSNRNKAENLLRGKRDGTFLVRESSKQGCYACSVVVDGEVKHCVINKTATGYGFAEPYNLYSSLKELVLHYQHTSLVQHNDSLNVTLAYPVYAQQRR
Sequence of c-RAF (P04049 whole entry): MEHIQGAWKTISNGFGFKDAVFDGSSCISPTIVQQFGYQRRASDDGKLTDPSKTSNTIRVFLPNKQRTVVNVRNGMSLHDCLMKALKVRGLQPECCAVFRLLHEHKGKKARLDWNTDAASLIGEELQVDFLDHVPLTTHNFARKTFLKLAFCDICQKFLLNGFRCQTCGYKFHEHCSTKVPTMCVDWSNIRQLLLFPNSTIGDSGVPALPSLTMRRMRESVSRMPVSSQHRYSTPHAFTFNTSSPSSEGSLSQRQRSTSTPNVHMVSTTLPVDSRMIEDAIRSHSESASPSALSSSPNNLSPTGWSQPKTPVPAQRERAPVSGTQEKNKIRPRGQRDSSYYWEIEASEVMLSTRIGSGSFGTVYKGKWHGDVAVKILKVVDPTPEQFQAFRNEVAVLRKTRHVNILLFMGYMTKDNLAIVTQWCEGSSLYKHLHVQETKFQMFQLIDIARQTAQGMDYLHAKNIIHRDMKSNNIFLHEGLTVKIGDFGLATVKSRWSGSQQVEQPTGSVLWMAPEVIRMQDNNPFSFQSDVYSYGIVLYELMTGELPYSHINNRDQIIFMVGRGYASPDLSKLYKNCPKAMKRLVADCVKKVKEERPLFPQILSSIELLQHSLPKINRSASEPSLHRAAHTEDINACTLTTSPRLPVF
Method for TZMB-sensitive cells: The ability of the candidate compound to overcome trastuzumab resistance was evaluated.

With `CC(=O)N1N=C(c2cccc(O)c2)CC1c1ccc(Cl)cc1` (stereo not shown) [Compound 15, 1-[5-(4-Chlorophenyl)-3-(3-hydroxyphenyl)-4,5-dihydropyrazol-1-yl]-ethanone], in the data set “permeability”, the permeability result was “reasonable”. Besides, the “anticancer effect in TZMB-sensitive cells” value in the data set with TZMB-sensitive cells is listed as “significant anticancer effects not only in TZMB-sensitive cells but also in TZMB-resistant cells”. In addition, in data set [1], half-maximal inhibition (IC50) required 9.99 ± 0.2 µM. Besides, the “half-life T1/2 (IV)” value in data set [2] (intravenous) is 9.74 ± 2.76 h. Further, in data set [2] (intravenous and oral routes), the “bioavailability (Ft)” value is 25.1%. Besides, the “tumor growth and volume” value in the data set on JIMT-1 xenograft is “significant decrease in tumor growth and volume”. For the same compound, the luciferase activity entry in data set [3] is “dose-dependently and significantly reduced”. At MED23^D400A/H449G, the “binding to double mutant MED23” value was “unable to bind to the double mutant MED23^D400A/H449G”. Further, the inhibition at 10 µM at PI3 Kinase (p110a/p85a) (10 μM) and on c-RAF (10 μM) was 3% each time. Also, the inhibition at 25 µM turned out to be 17% on PI3 Kinase (p110a/p85a) (25 μM) and 10% at c-RAF (25 μM). The HER2 levels entry with HER2 is on record as “significant reduction in HER2 levels”.
